The nature of one data set: in vitro. The format is cell-based. Particulars: human, human hepatic stellate cells (HSCs), read-out: cell viability (hepatotoxicity, MTT). The method, then: Human hepatic stellate cells (HSCs, Sciencell) were grown in the Stellate Cell Medium (Sciencell) supplemented with 2% Foetal Bovine Serum (Sciencell), 1% Stellate Cell Growth Supplement (Sciencell) and 1% penicillin/streptomycin solution (Sciencell). The cells were cultured in the incubator at 37 °C and 5% CO2. To start the experiment, the cells were seeded at a density of 5 × 10^3 cells/well in 96-well plates and incubated (37 °C, 5% CO2) for 24 h. After incubation, medium was removed from the wells and the cells were exposed to 100 µl of the compound over a range of concentrations (from 0.1 to 10 µM) or 100 µl of culture medium alone (blank control). The cells were then further incubated for 24 h. After this time, the medium was removed, the cells were washed with PBS and 50 µl of MTT solution (0.75 mg/ml) was added to each well. The plates were incubated in the dark at 37 °C for another two hours. The MTT solution was then removed from the wells and 100 µl of DMSO was added. The plates were incubated at room temperature for 10 min and then 5 µl of Sorensen Buffer was added to each well. The plates were swayed and the absorbance at 570 nm was measured with a microplate reader (Synergy H1, BioTek, Winooski, VT, USA). The cell viability was expressed as a percentage of the control values (blank control)[40]^,[46]^,[47].

For data set [1], the target named is T1, BuChE (from equine serum) (Equus caballus, UniProt P81908).
T1 construct: purchased Sigma Aldrich; host or cells: equine serum
T1 sequence (P81908 whole entry): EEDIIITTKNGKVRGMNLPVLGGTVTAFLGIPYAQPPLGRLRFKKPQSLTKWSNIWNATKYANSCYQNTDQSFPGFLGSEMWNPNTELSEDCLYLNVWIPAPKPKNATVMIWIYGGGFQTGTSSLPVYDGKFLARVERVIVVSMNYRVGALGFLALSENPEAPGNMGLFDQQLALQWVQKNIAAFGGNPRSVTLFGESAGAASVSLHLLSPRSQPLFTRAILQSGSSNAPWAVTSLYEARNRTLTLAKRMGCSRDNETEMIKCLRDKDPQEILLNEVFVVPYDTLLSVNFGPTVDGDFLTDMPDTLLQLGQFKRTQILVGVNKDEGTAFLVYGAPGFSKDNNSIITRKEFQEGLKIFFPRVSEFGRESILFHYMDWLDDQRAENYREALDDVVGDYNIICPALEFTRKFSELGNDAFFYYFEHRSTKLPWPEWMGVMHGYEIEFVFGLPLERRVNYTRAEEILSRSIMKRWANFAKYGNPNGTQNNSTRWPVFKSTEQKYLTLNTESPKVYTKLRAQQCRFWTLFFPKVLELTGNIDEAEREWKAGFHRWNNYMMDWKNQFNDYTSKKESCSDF
In words: biochemical.
Procedure: The capacity of the novel cyclopentaquinoline hybrids to inhibit AChE (from the electric eel) and BuChE (from equine serum) were determined by the modified colorimetric Ellman’s method[38]^,[39]. Both enzymes, DTNB – Ellman’s reagent (5,5′-dithiobis-(2-nitrobenzoic acid)), acetyltiocholine iodide (ATCI) were obtained from Sigma Aldrich. AChE and BuChE samples in phosphate buffer (PBS) pH 8.0 were incubated in 96-well plates in the presence of the substrate (ATCI), 76 µl of DTNB and the tested compound at various concentration at room temperature for 10 min (AChE) or eight minutes (BuChE).

The next data set concerns the target T2, ACHE and BACE-1A (Homo sapiens, UniProt P22303+P56817).
T2 construct: the prepared pGBKT7-hACHE plasmid contained the cDNA fragment encoding for aa 52–577; obtained from the extracellular, N-terminal domain (aa 46–457) of BACE1A (GenBank: AF204943.1); host or cells: Saccharomyces cerevisiae Y2HGold (bait) mated with Y187 (prey)
Nature of the data set: Yeast three-hybrid (Y3H) assay with β-galactosidase readout. The format is cell-based, Saccharomyces cerevisiae. Particulars: 10 µM ligand. The method, then:
The Y3H method was used to analyse the possible hybrid-ligand induced interactions between five selected proteins. […]. Yeast codon optimisation was performed to facilitate high expression of human recombinant proteins in Saccharomyces cerevisae. The fragments for the signal peptide (aa 1–51) and domain responsible for protein tetramerization (aa 578–611) were obtained from the cDNA encoding for human ACHE (GenBank M55040.1). Therefore, the prepared pGBKT7-hACHE plasmid contained the cDNA fragment encoding for aa 52–577. […]
The yeast ẞ-galactosidase microplate assay protocol (stopped) was used to evaluate the ẞ-galactosidase activity in the yeast culture according to the manufacturer’s instructions. […] Optical density was measured at 660 nm and absorbance at 420 nm by a Synergy H1 spectrophotometer (Biotek). In the quantitative ẞ-galactosidase assay, the hybrid ligand 3e was used. […]

Data set [2] is described as follows: pKa assay (spectrophotometric). It counts as physicochemical. Particulars: potassium phosphate buffer series with methanol, 23 °C. The method, then: Potassium dihydrogen phosphate, potassium hydroxide and methanol (POCH) were used to prepare the buffer solution, as described previously. […]. The pH was measured in 23 °C by using a Mettler Toledo FiveEasy pH metre with a LE438 Lab pH electrode (Mettler Toledo). Our tested compound solution was 5 µM solution in methanol: water (1:1) mix.
Spectrophotometric measurement was performed in a 96-well plate using a Synergy H1 microplate reader (BioTek) with Gen5 software (BioTek). The full assay consisted of 35 UV spectrum measurements, one for each work buffer solution. For the assay, 180 μL sequent work buffer and 20 μL tested compound solution were added to each of 35 wells. For the blank, 200 μL sequent work buffer alone was added to each of 35 wells. The measurement was performed at 23 °C. The spectra were recorded from 280 nm to 380 nm in 1 nm steps. Concentrations were calculated based on the 332/343 nm and 343/332 nm ratio as described previously. The results were compared with computer calculations of pKa value obtained using chemicalize.com online software (ChemAxon 2018) and ACD/Percepta version 14.0.0 (Advanced Chemistry Development, Inc., Metropolitan Toronto, Canada).

Where two headings read alike, the source gives them in different places.

T2 sequence (P22303 52-577): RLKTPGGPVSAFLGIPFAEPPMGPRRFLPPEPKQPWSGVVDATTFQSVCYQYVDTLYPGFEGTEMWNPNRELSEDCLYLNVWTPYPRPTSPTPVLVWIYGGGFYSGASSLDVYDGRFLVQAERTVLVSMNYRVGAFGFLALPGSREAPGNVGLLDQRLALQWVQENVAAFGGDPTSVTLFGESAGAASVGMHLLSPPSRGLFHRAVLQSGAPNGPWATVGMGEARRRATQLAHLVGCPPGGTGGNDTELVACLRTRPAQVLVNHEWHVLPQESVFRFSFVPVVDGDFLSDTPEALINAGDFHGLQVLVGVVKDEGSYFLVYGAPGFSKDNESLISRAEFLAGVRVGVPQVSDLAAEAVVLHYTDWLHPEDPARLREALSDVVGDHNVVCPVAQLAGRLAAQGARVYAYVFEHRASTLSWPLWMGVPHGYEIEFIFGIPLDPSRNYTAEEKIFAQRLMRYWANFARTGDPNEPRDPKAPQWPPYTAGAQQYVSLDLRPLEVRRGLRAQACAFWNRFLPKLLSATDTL
T2 sequence (P56817 46-457): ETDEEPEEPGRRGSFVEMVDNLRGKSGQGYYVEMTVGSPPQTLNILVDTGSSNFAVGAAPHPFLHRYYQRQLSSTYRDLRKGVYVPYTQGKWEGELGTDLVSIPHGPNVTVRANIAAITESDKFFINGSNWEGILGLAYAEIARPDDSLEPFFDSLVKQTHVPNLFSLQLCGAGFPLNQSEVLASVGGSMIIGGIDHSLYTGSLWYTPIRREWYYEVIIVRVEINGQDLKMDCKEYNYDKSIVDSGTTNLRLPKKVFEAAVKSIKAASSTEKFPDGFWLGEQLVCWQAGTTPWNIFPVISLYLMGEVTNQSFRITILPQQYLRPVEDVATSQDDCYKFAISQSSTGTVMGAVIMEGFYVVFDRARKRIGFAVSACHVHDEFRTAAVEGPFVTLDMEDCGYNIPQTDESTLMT

For `O=C(NCCCCCCNc1c2c(nc3ccccc13)CCC2)c1cc(Cl)cc(Cl)c1` [Compound 3e], the viability at 24 h, 0.1 µM in the data set “in vitro” (0.1 µM) is 102%. Also, in the data set “in vitro” (1 µM), the viability at 24 h, 1 µM came to 100%. Further, in the data set “in vitro” (10 µM), the viability at 24 h, 10 µM is 97.3%. Further, in data set [1] (IC50(AChE)/IC50(BuChE)), the “Selectivity for BuChE” value is on record as 1.13. In data set [1] (means ± SD of three experiments), this compound yielded an IC50 of 0.116 ± 0.006 µM. Further, the “β-galactosidase activity (strength of interaction)” value at ACHE and BACE-1A (96 h, triplicate) worked out at 206.37 ± 4.85 units. Also, on ACHE and BACE-1A (DDO and QDO/X/A plates), the “hybrid ligand-mediated interaction of ACHE-BACE-1A protein pair (blue colonies)” value is “yielded blue colonies”. Moreover, the pKa in data set [2] (read-out: pKa1 Experimental) is 8.4; in data set [2] (read-out: pKa2 Experimental), 11.3.
